Reference: ChEMBL document CHEMBL5543158, “Design of Evodiamine-Glucose Conjugates with Improved In Vivo Antitumor Activity” (J Med Chem, 2024)
≈ marks a conversion by molar mass, not a printed value. Calls of active or inactive are those of the source. The calls are words filed in the database; no cut-off is given here.

Columns and labels:
[1] = Tmax in mouse at 10 mg/kg, ip measured upto 24 hrs; type: ADME, organism-based; conditions: in vivo
[2] = test system: HCT-116; experiment: Anti-invasive activity against human HCT116 cells assessed as decrease in number of cell migration into lower compartment incubated for 24 hrs by transwell assay; type: functional, cell-based; conditions: dose 0.02-0.05 µM
[3] = test system: HCT-116; experiment: In vivo antitumor effect in human HCT-116 cells xenografted mouse model assessed as inhibition of tumor cell proliferation by measuring Ki67 at 10 to 20 mg/kg, ip twice a day administered 21 consecutive days by TUNEL based assay; type: functional, organism-based; conditions: dose 10-20 mg/kg
[4] = Solubility of the compound in double distilled water measured upto 30 mins by UV-vis spectrophotometry; type: physicochemical
[5] = MRT (0 to t) in mouse at 10 mg/kg, ip measured upto 24 hrs; type: ADME, organism-based; conditions: in vivo
[6] = test system: HCT-116; experiment: In vivo antitumor effect in human HCT-116 cells xenografted mouse model assessed as decrease in dense tumor tissue at 10 to 20 mg/kg, ip twice a day administered 21 consecutive days by H and E staining based assay; type: functional, organism-based; conditions: dose 10-20 mg/kg
[7] = test system: A549; experiment: Antiproliferative activity against human A549 cells measured after 72 hrs by CCK-8 cells; type: functional, cell-based; conditions: A549, 72 h
[8] = Toxicity in mouse xenografted with human HCT-116 cells assessed as organ damage by measuring change in spleen at 10 mg/kg, ip twice a day administered 21 consecutive days; type: organism-based; conditions: in vivo
[9] = test system: HCT-116; experiment: Antimigratory activity against human HCT116 cells assessed as inhibition of cell migration at 0.05 microM incubated for 24 hrs by wound healing assay relative to control; type: functional; set-up: scale not given: the % may be the effect or the level left
[10] = Unbound drug concentration in mouse plasma at 2 uM; type: ADME, cell-free
[11] = test system: U-87 MG; experiment: Antiproliferative activity against human U-87 MG cells measured after 72 hrs by CCK-8 cells; type: functional, cell-based, U-87MG ATCC
[12] = AUC (0 to t)in mouse at 10 mg/kg, ip measured upto 24 hrs; type: ADME, organism-based; conditions: in vivo
[13] = test system: HCT-116; experiment: Pro-oxidant effect in human HCT-116 cells assessed as induction of reactive oxygen level (ROS) measured after 12 hrs by flow cytometry using the 2',7'-dichloro-fluorescein diacetate (DCFH-DA) fluorescent probe assay; type: functional, cell-based; conditions: dose 0.02-0.5 µM
[14] = test system: HCT-116; experiment: Antiproliferative activity against human HCT116 cells in presence of 5 uM phloretin measured after 72 hrs by CCK-8 assay; type: functional, cell-based; conditions: HCT-116, 72 h
[15] = test system: HCT-116; experiment: Induction of DNA damage in human HCT-116 cells assessed as increase in gamma-H2AX level at above 0.02 to 0.5 uM incubated for 12 hrs by Western blotting analysis; type: functional, cell-based; conditions: dose 0.02-0.5 µM
[16] = test system: HCT-116; experiment: In vivo antitumor effect in human HCT-116 cells xenografted mouse model assessed as induction of apoptosis in tumor at 10 to 20 mg/kg, ip twice a day administered 21 consecutive days by TUNEL based assay; type: functional, organism-based; conditions: dose 10-20 mg/kg
[17] = test system: HCT-116; experiment: Induction of apoptosis in human HCT116 cells assessed as accumulation of cells at G1 phase at 0.02 uM measured after 48 hrs by Annexin V-PI Flow cytometry assay (reference value: 51.12%); type: functional
[18] = test system: HCT-116; experiment: Induction of apoptosis in human HCT116 cells assessed as accumulation of cells at G2 phase at 0.2 uM measured after 48 hrs by Annexin V-PI Flow cytometry assay (reference value: 17.63%); type: functional
[19] = AUC (0 to t)in mouse at 20 mg/kg, ip measured upto 24 hrs; type: ADME, organism-based; conditions: in vivo
[20] = test system: HCT-116; experiment: Pro-oxidant effect in human HCT-116 cells assessed as induction of reactive oxygen level (ROS) measured after 12 hrs by 2',7'-dichloro-fluorescein diacetate (DCFH-DA) fluorescent probe based flow cytometry; type: functional, cell-based; conditions: dose 0.02-0.5 µM
[21] = test system: HCT-116; experiment: In vivo antitumor effect in human HCT-116 cells xenografted mouse model assessed as tumor growth inhibition at 10 mg/kg, ip twice a day administered 21 consecutive days; type: functional; conditions: read-out: TGI
[22] = Half life in mouse at 20 mg/kg, ip measured upto 24 hrs; type: ADME, organism-based; conditions: in vivo
[23] = Half life in mouse at 10 mg/kg, ip measured upto 24 hrs; type: ADME, organism-based; conditions: in vivo
[24] = Toxicity in mouse xenografted with human HCT-116 cells assessed as organ damage by measuring change in liver at 10 mg/kg, ip twice a day administered 21 consecutive days; type: organism-based; conditions: in vivo
[25] = Cmax in mouse at 20 mg/kg, ip measured upto 24 hrs; type: ADME, organism-based; conditions: in vivo
[26] = test system: HCT-116; experiment: Induction of apoptosis in human HCT116 cells assessed as accumulation of cells at G1 phase at 0.1 uM measured after 48 hrs by Annexin V-PI Flow cytometry assay (reference value: 51.12%); type: functional
[27] = test system: HCT-116; experiment: Antimigratory activity against human HCT116 cells assessed as wound healing rate incubated for 24 hrs by wound healing assay; type: functional, cell-based

Tmax [1]: 0.5 h | solubility at 0.5 h [4]: 2150 µg/mL (≈ 4.3 mM) | MRT last at 24 h [5]: 0.802 h | IC50 [7]: 0.064 µM | Cp(f) [10]: 85.1 ng/mL | IC50 [11]: 0.064 µM | AUC(0-t) at 24 h [12]: 4010 ng·h/mL | IC50 [14]: 0.21 µM | AUC(0-t) at 24 h [19]: 8430 ng·h/mL | half-life [22]: 6.2 h | half-life [23]: 2.41 h | Cmax [25]: 8840 ng/mL
SMILES: CN1c2ccc(F)cc2C(=O)N2CCc3c([nH]c4ccc(O[C@@H]5O[C@H](CO)[C@@H](O)[C@H](O)[C@H]5O)cc34)[C@H]21
Activity [2]: Dose-Dependent Effect | Activity [3]: Active | Activity [6]: Active | Activity [8]: Non-Toxic | Activity [9]: 100% | Activity [13]: Dose-Dependent Effect | Activity [15]: Active | Activity [16]: Active | Activity [17]: 43.27% | Activity [18]: 92.85% | Activity [20]: Dose-Dependent Effect | inhibition in vivo at 10 mg/kg [21]: 72% | Activity [24]: Non-Toxic | Activity [26]: 1.57% | Activity [27]: Dose-Dependent Effect
